The test system of one experiment is HCC38 cells. The experiment is described as follows: Cell proliferation assay (CellTiter-Glo), HCC38. It is filed as cell-based. Particulars: Homo sapiens, 72 h; HCC38, 3 days exposure. How it is done: Next, we evaluated both concentration-dependent and time-dependent effects of TAS1553 on the dATP pool in HCC38 and MV-4-11 cell lines using absolute quantification. After 2 h of TAS1553 exposure, there was a concentration-dependent reduction of intracellular dATP pool in both cell lines (Fig. 2c). Furthermore, the intracellular dATP pool was reduced within 30 minutes when treated with TAS1553 at 1 or 10 µmol/L in both cell lines (Fig. 2d), consistent with its inhibitory effect on the protein-protein interaction (Fig. 2a).
Cell proliferation assay was performed as reported previously. Briefly, cells were plated and incubated for 1 day, followed by 3 days of exposure to the compound. After compound exposure, viable cells were detected by using the CellTiter-Glo luminescent cell viability assay (Promega). GI50 values were calculated using the SAS software package. The experiment was performed in triplicates.

The next experiment concerns the target T1, human R1 (Homo sapiens, UniProt P23921).
T1 construct: made in house; host or cells: Escherichia coli
T1 sequence (P23921 1-792): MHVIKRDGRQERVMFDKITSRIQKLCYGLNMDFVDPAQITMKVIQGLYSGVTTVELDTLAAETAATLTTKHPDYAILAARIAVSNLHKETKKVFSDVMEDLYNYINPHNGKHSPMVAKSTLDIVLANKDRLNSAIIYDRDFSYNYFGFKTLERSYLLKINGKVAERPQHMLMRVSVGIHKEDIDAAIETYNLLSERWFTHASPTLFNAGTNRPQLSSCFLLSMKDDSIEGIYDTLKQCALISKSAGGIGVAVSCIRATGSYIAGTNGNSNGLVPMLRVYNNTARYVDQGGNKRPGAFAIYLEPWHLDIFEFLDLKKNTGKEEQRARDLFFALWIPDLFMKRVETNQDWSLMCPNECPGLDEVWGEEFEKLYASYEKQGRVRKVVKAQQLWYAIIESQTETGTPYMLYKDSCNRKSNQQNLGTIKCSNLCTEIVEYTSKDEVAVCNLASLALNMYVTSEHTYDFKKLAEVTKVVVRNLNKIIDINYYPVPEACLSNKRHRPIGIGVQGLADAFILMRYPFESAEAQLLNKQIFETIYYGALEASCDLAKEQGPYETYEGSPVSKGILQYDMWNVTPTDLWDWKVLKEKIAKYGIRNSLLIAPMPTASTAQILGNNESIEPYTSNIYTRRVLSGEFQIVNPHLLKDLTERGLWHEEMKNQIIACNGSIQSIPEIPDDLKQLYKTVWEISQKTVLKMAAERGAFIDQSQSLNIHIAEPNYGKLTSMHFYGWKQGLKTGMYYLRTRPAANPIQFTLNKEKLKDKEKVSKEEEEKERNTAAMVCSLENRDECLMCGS
Description: Surface plasmon resonance binding analysis. Particulars: SPR, steady-state affinity, three independent experiments. As for the experimental part: (§1) The binding affinity of TAS1553 to the R1 subunit was investigated using surface plasmon resonance (SPR) binding analysis. […] Next, we evaluated the inhibitory effect of TAS1553 against the enzymatic activity of RNR, consisting of R1 and R2 recombinant proteins. RNR activity was determined by its ability to reduce cytidine diphosphate (CDP) to deoxycytidine diphosphate (dCDP), based on a previous report. […] In addition to the inhibitory effect on RNR, TAS1553 was evaluated in a Eurofins LeadProfilingScreen panel assay including 68 proteins, such as ion channels, transporters, nuclear receptors, and G protein-coupled receptors, to examine its potential adverse activity.

For experiment [1], the target named is T2, RNR (R1 and R2 recombinant proteins) (Homo sapiens, UniProt P23921).
T2 construct: made in house; host or cells: Escherichia coli
T2 sequence (P23921 1-792): T1 sequence (P23921 1-792)
The experiment is described as follows: RNR assay (formation of dCDP from CDP). It is filed as biochemical. The following applies: CDP to dCDP; mean ± SD; read-out: Enzyme IC50. As for the experimental part:
as §1
The inhibition of RNR activity by the test compound was evaluated by measuring the formation of dCDP from CDP, as reported previously. The assay was performed for 30 min at 37 °C in a reaction mixture composed of 50 mmol/L HEPES, 4 mmol/L magnesium acetate, 100 mmol/L KCl, 6 mmol/L DTT, 2 mmol/L ATP, 0.24 mmol/L NADPH, 10.0 µmol/L CDP, 0.1 mg/mL BSA, 8.0 µg/mL His-R1, 2.4 µg/mL His-R2, and 1% DMSO with or without test compound. The reaction was discontinued by heat treatment at 95 °C for 5 min. The amount of dCDP after the reaction was quantified by a prominence HPLC system and LabSolutions software (SHIMADZU CORPORATION). Separations were performed at 265 nm in a Shim-pack XR-ODS column of particle size 2.2 μm (100 × 3.0 mm, SHIMADZU GLC Ltd.). Overall, 5 µL of each sample was injected, and chromatography was performed at 40 °C. Mobile A was composed of 10 mmol/L potassium dihydrogenphosphate, 10 mmol/L tetrabutylammonium hydroxide, 0.25% methanol and 8 mmol/L HCl. Mobile B was composed of 50 mmol/L potassium dihydrogenphosphate, 5.6 mmol/L tetrabutylammonium hydroxide, and 30% methanol. The gradient was as follows: 52–60% B for 9 min, 60–99% B for 1 min, 99% B for 5 min, 99–52% B for 1 min, and 52% B for 5 min. The flow rate was 0.5 mL/min. The experiment was performed in triplicates. IC50 values were calculated using the SAS software package.

Experiment [2] relates to 68 proteins (ion channels, transporters, nuclear receptors, G protein-coupled receptors). Description: Eurofins LeadProfilingScreen panel assay. It is filed as binding. Particulars: 10 μmol/L; significant defined as >50% inhibition for each target protein. As for the experimental part: as §1
A further experiment relates to HCC38 xenograft. The experiment is described as follows: Antitumor activity in mice bearing HCC38 xenografts. It is filed as in vivo, mouse. Particulars: 100 mg/kg oral once daily for 14 days. How it is done: Next, we evaluated the antitumor activity of a high-dose administration of TAS1553 and cytarabine in rats bearing MV-4-11 xenografts. […] The rats were treated with cytarabine for 5 days at 16 and 32 mg/kg. […] In addition to the hematologic tumor, we evaluated the antitumor activity of TAS1553 in mice implanted with HCC38 cell line as a solid tumor model. […] Finally, TAS1553 was evaluated for its survival benefit in a mouse model. To achieve this, we established mice bone marrow cells harboring the human MLL-AF9 fusion gene, which is known as a driver gene for AML in humans as well as mice[48]. Mice were transplanted with the cells through the tail vein and the treatment with TAS1553 was started 11 days post-implantation.
For the subcutaneous implantation model of MV-4-11, F344/NJcl-rnu/rnu rats were irradiated with X-ray (4 Gy) to improve the efficiency of xenograft implantation. Two days after X-ray irradiation, MV-4-11 cells suspended in PBS with 50 vol% Matrigel were inoculated into the rats (2 × 10^7 cells/animal). In the mice subcutaneous implantation model, HCC38 cells suspended same as above were inoculated into male BALB/cAJcl-nu/nu mice (1 × 10^7 cells /body). The animals were randomized and administered with the compound for 14 days. Antitumor activity and body weight change were evaluated as previously reported. Dunnett test using the SAS software package in EXSUS (CAC Croit) was used to compare the tumor volume (P < 0.05).

On to `Cc1ccc(F)c([C@@H](C)[C@H](NS(=O)(=O)c2ccc(Cl)cc2C(N)=O)c2n[nH]c(=O)o2)c1C` [TAS1553, 5-chloro-2-{N-[(1S,2R)-2-(6-fluoro-2,3-dimethylphenyl)-1-(5-oxo-4,5-dihydro-1,3,4-oxadiazol-2-yl)propyl]sulfamoyl}benzamide], for which growth in the experiment with HCC38 cells was halved (GI50) at 352 nM. This molecule had a Kd at human R1 of 34.9 ± 0.9 nM. Also, the IC50 in experiment [1] worked out at 54.2 ± 6.1 nM. Moreover, in experiment [2], the “inhibition in 68-protein panel” value was “no significant inhibition”. For the same molecule, the T/C ratio with HCC38 xenograft is listed as 40.4%.
